These results are taken from patent publication US20260201008A1, “SECRETIN-DERIVED GLP1R SELECTIVE AGONISTS” (GUBRA A/S, priority 2023, published 2026).

For one series, the target named is GLP1R (Homo sapiens, UniProt P43220). Briefly: hGLP1R potency, cAMP accumulation in CHO-K1 cells stably overexpressing hGLP1R. The format is cell-based. More on the design: host or cells: CHO-K1. Particulars: for Selectivity: SCTR EC50/GLP1R EC50 ratio. The procedure, abridged:
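2000 cells/well, DPBS + 0.05% casein + 0.5 mM IBMX; 30 min RT stimulation; HTRF cAMP detection after 1 h. Purified: 3-fold ×11, n=2; crude: 10-fold ×5, n=1. EC50 by variable-slope fit.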

For another series, the target named is SCTR (Homo sapiens, UniProt P47872). Kind of series: hSCTR potency, cAMP accumulation in CHO-K1 cells stably overexpressing hSCTR. The format is cell-based. More on the design: alternatively Euroscreen ES-712-AF; FAST-0161L; host or cells: CHO-K1. The procedure, abridged: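 Thawed CHO-K1 cells carrying stable hSCTR are plated into casein/IBMX buffer (0.05%, 0.5 mM), dosed immediately for 30 min at room temperature, then cAMP is detected by TR-FRET. Purified peptides run as 11 three-fold dilutions in duplicate, and curves are fitted with variable slope.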
For orientation: cAMP levels reflect the balance of adenylyl cyclase and phosphodiesterase activity.

Series [1] can be described thus: Fibril formation of crude library peptides (Thioflavin T). The format is physicochemical. More on the design: key: average ThT fluorescence emission at 480 nm (ex 450 nm), raw units. Particulars: Physical stability of peptides. The procedure, abridged:
(§1)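 Turbidity is the absorbance at 600 nm, taken before heating. Fibril signal is the mean ThT emission at 480 nm (450 nm excitation), read every 10 min over 72 h at 40° C with 700 rpm shaking between reads. Peptides at 267 μM, pH 4.0 acetate or pH 7.0 phosphate buffer (50 mM), 4 μM ThT final.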

The nature of series [2]: Turbidity of crude library peptides (absorbance at 600 nm). The format is physicochemical. As to conditions: Physical stability of peptides. The procedure, abridged: as §1
Where [3] appears, read: cAMP accumulation, CHO-K1 cells overexpressing hGLP1R, read-out: pEC50 hGLPR1 (converted).
[4] abbreviates: cAMP accumulation, CHO-K1 cells overexpressing hSCTR, read-out: pEC50 hSCTR (converted).

Each structure is given as a SMILES string. Where two headings read alike, the source gives them in different places. Numbered stars: 1 amine (or outer) side, 2 acyl side, 3 side chain; on linkers, the order of the positions; unused ones are H or OH. Square brackets hold non-standard residues; d marks the D form. Side chains are listed from the residue outwards. Peptide text beside a SMILES is read from it. * marks the point of attachment. C20 diacid = O=C(O)CCCCCCCCCCCCCCCCCCC(=O)*; γGlu = O=C(O)[C@H](CCC(=O)[*:2])N[*:1]; AEEA = NCCOCCOCC(=O)O; Aib = CC(C)(N)C(=O)O

GLP1R, sequence (P43220 24-463): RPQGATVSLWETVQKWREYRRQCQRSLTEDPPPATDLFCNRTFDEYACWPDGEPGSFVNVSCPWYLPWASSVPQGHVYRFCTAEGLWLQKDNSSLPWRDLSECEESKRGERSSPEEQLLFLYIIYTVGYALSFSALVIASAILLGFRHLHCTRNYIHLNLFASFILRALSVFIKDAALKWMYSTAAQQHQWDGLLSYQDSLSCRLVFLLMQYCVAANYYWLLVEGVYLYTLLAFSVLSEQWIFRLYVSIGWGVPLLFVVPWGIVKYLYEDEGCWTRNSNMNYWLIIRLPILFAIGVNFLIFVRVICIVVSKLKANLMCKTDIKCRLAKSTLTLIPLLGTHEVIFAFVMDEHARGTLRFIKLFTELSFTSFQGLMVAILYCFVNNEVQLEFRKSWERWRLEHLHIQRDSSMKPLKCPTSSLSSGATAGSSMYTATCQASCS
SCTR, sequence (P47872 23-440): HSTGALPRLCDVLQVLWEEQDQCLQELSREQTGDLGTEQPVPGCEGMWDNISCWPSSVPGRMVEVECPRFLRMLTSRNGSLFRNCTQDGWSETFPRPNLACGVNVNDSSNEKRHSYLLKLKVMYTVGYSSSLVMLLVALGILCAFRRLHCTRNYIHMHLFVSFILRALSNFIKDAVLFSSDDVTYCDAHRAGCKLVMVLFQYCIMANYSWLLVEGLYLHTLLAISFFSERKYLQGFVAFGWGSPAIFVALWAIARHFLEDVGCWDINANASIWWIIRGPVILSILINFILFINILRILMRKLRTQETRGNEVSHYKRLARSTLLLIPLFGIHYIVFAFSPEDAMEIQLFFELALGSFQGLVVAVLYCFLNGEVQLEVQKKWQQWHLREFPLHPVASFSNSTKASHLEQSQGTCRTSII

Consider `CC(C)C[C@H](NC(=O)[C@H](Cc1ccccc1)NC(=O)[C@H](CCCNC(=N)N)NC(=O)[C@H](CCC(N)=O)NC(=O)[C@H](CO)NC(=O)[C@H](C)NC(=O)[C@H](C)NC(=O)[C@H](CCC(=O)O)NC(=O)[C@H](CCC(=O)O)NC(=O)[C@H](CCCCNC(=O)COCCOCCNC(=O)COCCOCCNC(=O)CC[C@H](NC(=O)CCCCCCCCCCCCCCCCCCC(=O)O)C(=O)O)NC(=O)[C@H](CC(C)C)NC(=O)[C@H](Cc1ccccc1)NC(=O)[C@H](CO)NC(=O)[C@@H](NC(=O)[C@H](CC(=O)O)NC(=O)[C@H](CO)NC(=O)[C@@H](NC(=O)[C@H](Cc1ccccc1)NC(=O)[C@@H](NC(=O)CNC(=O)[C@H](CCC(=O)O)NC(=O)C(C)(C)NC(=O)[C@@H](N)Cc1c[nH]cn1)[C@@H](C)O)[C@@H](C)O)C(C)C)C(=O)N[C@@H](CCC(=O)O)C(=O)N[C@@H](Cc1c[nH]cn1)C(=O)N[C@@H](CC(C)C)C(=O)N[C@H](C(N)=O)C(C)C` [compound 38] (H-H[Aib]EGTFTSDVSFLK([AEEA-AEEA-γGlu-C20 diacid])EEAASQRFLEHLV-NH2), for which the Selectivity at GLP1R turned out to be 35785. Besides, the figures for the EC50 at GLP1R (setting [3]) and on SCTR (setting [4]) were 0.0316 nM and 1000 nM, respectively. Also, the Fibril formation in series [1] is 38424. Further, the “Turbidity (pH 7)” value in series [2] came to 0.09.
On the same counts, the results for `CC(C)C[C@H](NC(=O)[C@H](Cc1ccccc1)NC(=O)[C@H](CCCNC(=N)N)NC(=O)[C@H](CCC(N)=O)NC(=O)[C@H](CCC(N)=O)NC(=O)[C@H](C)NC(=O)[C@H](C)NC(=O)[C@H](CCC(=O)O)NC(=O)[C@H](CCC(=O)O)NC(=O)[C@H](CCCCNC(=O)COCCOCCNC(=O)COCCOCCNC(=O)CC[C@H](NC(=O)CCCCCCCCCCCCCCCCCCC(=O)O)C(=O)O)NC(=O)[C@H](CC(C)C)NC(=O)[C@@H](NC(=O)[C@H](CO)NC(=O)[C@@H](NC(=O)[C@H](CC(=O)O)NC(=O)[C@H](CO)NC(=O)[C@@H](NC(=O)[C@H](Cc1ccccc1)NC(=O)[C@@H](NC(=O)CNC(=O)[C@H](CCC(=O)O)NC(=O)C(C)(C)NC(=O)[C@@H](N)Cc1c[nH]cn1)[C@@H](C)O)[C@@H](C)O)C(C)C)[C@@H](C)O)C(=O)N[C@@H](CCC(=O)O)C(=O)N[C@@H](Cc1c[nH]cn1)C(=O)N[C@@H](CC(C)C)C(=O)N[C@H](C(N)=O)C(C)C` [compound 39] (H-H[Aib]EGTFTSDVSTLK([AEEA-AEEA-γGlu-C20 diacid])EEAAQQRFLEHLV-NH2) are 17346, 0.0158 nM, 316 nM, 9592 and 0.08.
Consider `CC(C)C[C@H](NC(=O)[C@H](Cc1ccccc1)NC(=O)[C@H](CCCNC(=N)N)NC(=O)[C@H](CCC(N)=O)NC(=O)[C@H](CCC(N)=O)NC(=O)[C@H](C)NC(=O)[C@H](C)NC(=O)C(C)(C)NC(=O)[C@H](CCC(=O)O)NC(=O)[C@H](CCCCNC(=O)COCCOCCNC(=O)COCCOCCNC(=O)CC[C@H](NC(=O)CCCCCCCCCCCCCCCCCCC(=O)O)C(=O)O)NC(=O)[C@H](CC(C)C)NC(=O)[C@@H](NC(=O)[C@H](CO)NC(=O)[C@@H](NC(=O)[C@H](CC(=O)O)NC(=O)[C@H](CO)NC(=O)[C@@H](NC(=O)[C@H](Cc1ccccc1)NC(=O)[C@@H](NC(=O)CNC(=O)[C@H](CCC(=O)O)NC(=O)C(C)(C)NC(=O)[C@@H](N)Cc1c[nH]cn1)[C@@H](C)O)[C@@H](C)O)C(C)C)C(C)C)C(=O)N[C@@H](CCC(=O)O)C(=O)N[C@@H](Cc1c[nH]cn1)C(=O)N[C@@H](CC(C)C)C(=O)N[C@H](C(N)=O)C(C)C` [compound 40] (H-H[Aib]EGTFTSDVSVLK([AEEA-AEEA-γGlu-C20 diacid])E[Aib]AAQQRFLEHLV-NH2), for which the Selectivity at GLP1R is 21943. Moreover, the EC50 on GLP1R (setting [3]) is 0.02 nM; at SCTR (setting [4]), 398 nM. The molecule also showed a Fibril formation in series [1] of 12180. Besides, the “Turbidity (pH 7)” value in series [2] was determined as 0.08.
Consider `CC(C)C[C@H](NC(=O)[C@H](Cc1ccccc1)NC(=O)[C@H](CCCNC(=N)N)NC(=O)[C@H](CCC(N)=O)NC(=O)[C@H](CCC(N)=O)NC(=O)[C@H](C)NC(=O)[C@H](C)NC(=O)[C@@H](NC(=O)[C@H](CCC(=O)O)NC(=O)[C@H](CCCCNC(=O)COCCOCCNC(=O)COCCOCCNC(=O)CC[C@H](NC(=O)CCCCCCCCCCCCCCCCCCC(=O)O)C(=O)O)NC(=O)[C@H](CC(C)C)NC(=O)[C@@H](NC(=O)[C@H](CO)NC(=O)[C@@H](NC(=O)[C@H](CC(=O)O)NC(=O)[C@H](CO)NC(=O)[C@@H](NC(=O)[C@H](Cc1ccccc1)NC(=O)[C@@H](NC(=O)CNC(=O)[C@H](CCC(=O)O)NC(=O)C(C)(C)NC(=O)[C@@H](N)Cc1c[nH]cn1)[C@@H](C)O)[C@@H](C)O)C(C)C)C(C)C)[C@@H](C)O)C(=O)N[C@@H](CCC(=O)O)C(=O)N[C@@H](Cc1c[nH]cn1)C(=O)N[C@@H](CC(C)C)C(=O)N[C@H](C(N)=O)C(C)C` [compound 41] (H-H[Aib]EGTFTSDVSVLK([AEEA-AEEA-γGlu-C20 diacid])ETAAQQRFLEHLV-NH2), for which the Selectivity at GLP1R was 16199. The EC50 was 0.00794 nM at GLP1R (setting [3]) and 126 nM on SCTR (setting [4]). Further, in series [1], the Fibril formation was found to be 109124. Besides, the “Turbidity (pH 7)” value in series [2] stood at 0.08.
Turning to `CC(C)C[C@H](NC(=O)[C@H](Cc1ccccc1)NC(=O)[C@H](CCCNC(=N)N)NC(=O)[C@H](CCC(N)=O)NC(=O)[C@H](CCC(=O)O)NC(=O)[C@H](C)NC(=O)[C@H](C)NC(=O)[C@@H](NC(=O)[C@H](CCC(=O)O)NC(=O)[C@H](CCCCNC(=O)COCCOCCNC(=O)COCCOCCNC(=O)CC[C@H](NC(=O)CCCCCCCCCCCCCCCCCCC(=O)O)C(=O)O)NC(=O)[C@H](CC(C)C)NC(=O)[C@@H](NC(=O)[C@H](CO)NC(=O)[C@@H](NC(=O)[C@H](CC(=O)O)NC(=O)[C@H](CO)NC(=O)[C@@H](NC(=O)[C@H](Cc1ccccc1)NC(=O)[C@@H](NC(=O)CNC(=O)[C@H](CCC(=O)O)NC(=O)C(C)(C)NC(=O)[C@@H](N)Cc1c[nH]cn1)[C@@H](C)O)[C@@H](C)O)C(C)C)[C@@H](C)O)[C@@H](C)O)C(=O)N[C@@H](CCC(=O)O)C(=O)N[C@@H](Cc1c[nH]cn1)C(=O)N[C@@H](CC(C)C)C(=O)N[C@H](C(N)=O)C(C)C` [compound 42] (H-H[Aib]EGTFTSDVSTLK([AEEA-AEEA-γGlu-C20 diacid])ETAAEQRFLEHLV-NH2), the Selectivity at GLP1R was determined as 209363. For the same molecule, the EC50 on GLP1R (setting [3]) is 0.0158 nM; on SCTR (setting [4]) it was 3160 nM. The molecule further yielded a Fibril formation in series [1] of 6253. Further, the “Turbidity (pH 7)” value in series [2] came out at 0.08.
Turning to `CC(C)C[C@H](NC(=O)[C@H](Cc1ccccc1)NC(=O)[C@H](CCCNC(=N)N)NC(=O)[C@H](CCC(N)=O)NC(=O)[C@H](C)NC(=O)[C@H](C)NC(=O)[C@H](C)NC(=O)C(C)(C)NC(=O)[C@H](CCC(=O)O)NC(=O)[C@H](CCCCNC(=O)COCCOCCNC(=O)COCCOCCNC(=O)CC[C@H](NC(=O)CCCCCCCCCCCCCCCCCCC(=O)O)C(=O)O)NC(=O)[C@H](CC(C)C)NC(=O)[C@@H](NC(=O)[C@H](CO)NC(=O)[C@@H](NC(=O)[C@H](CC(=O)O)NC(=O)[C@H](CO)NC(=O)[C@@H](NC(=O)[C@H](Cc1ccccc1)NC(=O)[C@@H](NC(=O)CNC(=O)[C@H](CCC(=O)O)NC(=O)C(C)(C)NC(=O)[C@@H](N)Cc1c[nH]cn1)[C@@H](C)O)[C@@H](C)O)C(C)C)[C@@H](C)O)C(=O)N[C@@H](CCC(=O)O)C(=O)N[C@@H](Cc1c[nH]cn1)C(=O)N[C@@H](CC(C)C)C(=O)N[C@H](C(N)=O)C(C)C` [compound 43] (H-H[Aib]EGTFTSDVSTLK([AEEA-AEEA-γGlu-C20 diacid])E[Aib]AAAQRFLEHLV-NH2), on GLP1R, the EC50 was 0.01 nM and the Selectivity is given as 36686. Further, the EC50 on SCTR is 316 nM. The Fibril formation in series [1] is given as 18355. The “Turbidity (pH 7)” value in series [2] was 0.09.
`CC(C)C[C@H](NC(=O)[C@H](Cc1ccccc1)NC(=O)[C@H](CCCNC(=N)N)NC(=O)[C@H](CCC(N)=O)NC(=O)[C@H](C)NC(=O)[C@H](C)NC(=O)[C@H](C)NC(=O)[C@@H](NC(=O)[C@H](CCC(=O)O)NC(=O)[C@H](CCCCNC(=O)COCCOCCNC(=O)COCCOCCNC(=O)CC[C@H](NC(=O)CCCCCCCCCCCCCCCCCCC(=O)O)C(=O)O)NC(=O)[C@H](CC(C)C)NC(=O)[C@H](Cc1ccccc1)NC(=O)[C@H](CO)NC(=O)[C@@H](NC(=O)[C@H](CC(=O)O)NC(=O)[C@H](CO)NC(=O)[C@@H](NC(=O)[C@H](Cc1ccccc1)NC(=O)[C@@H](NC(=O)CNC(=O)[C@H](CCC(=O)O)NC(=O)C(C)(C)NC(=O)[C@@H](N)Cc1c[nH]cn1)[C@@H](C)O)[C@@H](C)O)C(C)C)[C@@H](C)O)C(=O)N[C@@H](CCC(=O)O)C(=O)N[C@@H](Cc1c[nH]cn1)C(=O)N[C@@H](CC(C)C)C(=O)N[C@H](C(N)=O)C(C)C` [compound 44] (H-H[Aib]EGTFTSDVSFLK([AEEA-AEEA-γGlu-C20 diacid])ETAAAQRFLEHLV-NH2): the Selectivity at GLP1R is listed as 114525. Moreover, the figures for the EC50 on GLP1R (setting [3]) and on SCTR (setting [4]) were 0.0316 nM and 3980 nM, respectively. In series [1], this molecule showed a Fibril formation of 10742. The “Turbidity (pH 7)” value in series [2] stood at 0.08.
